Values of other authors, collected in patent US20220160665A1, “COMPOSITION IN MICRO-ENCAPSULATED FORM, BASED ON N-BUTYRICACID OR DERIVATIVES THEREOF, FOR TREATING CROHNS DISEASE OR ULCERATIVE RECTAL COLITIS” (SILA S.R.L., priority 2019, published 2022).

Settings: solid granular form, white-coloured powder, commercially available

temperature up to which stable: up to 250 °C
Structure (SMILES): CCCC(=O)[O-].[Na+] [sodium salt of the n-butyric acid]
